{"source": "patent US7560435B2", "about": "“Therapeutic use of riboside of 5-aminoimidazole-4-carboxamide (acadesine)” (Advanced In Vitro Cell Technologies, S. A., priority 2002, dated 2009)", "key": {"[1]": {"tested_on": "293", "test": "Effects of acadesine in cell lines: 293", "format": "cell-based", "from_the_text": "(§1) Another important advantage of the invention is the selectivity and the concentration of acadesine necessary to induce apoptosis. […] This means that the possible side effects coming from damaging other cellular types are minor when using acadesine as a therapeutical agent."}, "[2]": {"tested_on": "HUH7 (liver cancer line)", "test": "Effects of acadesine in cell lines: HUH7", "format": "cell-based", "from_the_text": "as §1"}, "[3]": {"tested_on": "B cells from patients with SMZL", "test": "Apoptosis/viability by flow cytometry, B cells from SMZL patients", "format": "cell-based, human", "details": "0.5 mM and 1.0 mM, 24 h, seven SMZL patients", "from_the_text": "(§2) Forty-six patients with B-CLL, seven patients with SMZL, two patients with lymphoproliferative disorder without a specific diagnosis, and four healthy donors were studied. All patients were diagnosed according to standard clinical and laboratory criteria. Written informed consent was obtained from all patients. Mononuclear cells from peripheral blood samples were isolated by centrifugation on a Ficoll/Hypaque (Seromed, Berlin, Germany) gradient and cryopreserved in liquid nitrogen in the presence of 10% dimethyl sulfoxide (DMSO). Lymphocytes were cultured immediately after thawing at a concentration of 2 to 5×10^6 cells/ml in RPMI 1640 culture medium (Biological Industries, Beit Haemek, Israel) supplemented with 10% heat-inactivated fetal calf serum (Gibco-BRL, Paisley, GB), 1% glutamine, and 1% penicillin-streptomycin at 37° C. in a humidified atmosphere containing 5% carbon dioxide. Apoptosis was measured by annexin V binding. Exposure of phosphatidylserine was quantified by surface annexin V staining as previously described (cf. B. Bellosillo et al., Blood 1998, vol. 92, pp. 1406-1414). […] Data were analyzed using Cell Quest software. […] Viability (V) was measured by analysis of phosphatidylserine exposure and PI uptake, and it is expressed as the percentage of non apoptotic cells. […]"}, "[4]": {"tested_on": "JVM-2", "test": "Effects of acadesine in cell lines: JVM-2", "format": "cell-based", "from_the_text": "as §1"}, "[5]": {"tested_on": "CD3+/CD19- T cells from B-CLL patients", "test": "Apoptosis/viability by flow cytometry, T cells from B-CLL samples", "format": "cell-based, human", "details": "24 h", "from_the_text": "Forty-six patients with B-CLL, seven patients with SMZL, two patients with lymphoproliferative disorder without a specific diagnosis, and four healthy donors were studied. All patients were diagnosed according to standard clinical and laboratory criteria. Written informed consent was obtained from all patients. Mononuclear cells from peripheral blood samples were isolated by centrifugation on a Ficoll/Hypaque (Seromed, Berlin, Germany) gradient and cryopreserved in liquid nitrogen in the presence of 10% dimethyl sulfoxide (DMSO). […] Apoptosis was measured by annexin V binding. Exposure of phosphatidylserine was quantified by surface annexin V staining as previously described (cf. B. Bellosillo et al., Blood 1998, vol. 92, pp. 1406-1414). […] Data were analyzed using Cell Quest software. To analyze whether the induction of apoptosis in B-CLL patients was selective to B cells, we counted the apoptotic T cells (CD3 positive cells) in four B-CLL blood samples treated for 24 h with several doses of acadesine. […] Viability (V) was measured as non apoptotic CD3+/CD19− T cells (empty symbols) or CD3−/CD19+B cells (full symbols), and it is expressed as the percentage of the viability of non treated cells. […] Viability is expressed as the mean value ± standard deviation."}, "[6]": {"details": "healthy individuals, given intravenously; cited from earlier work"}, "[7]": {"tested_on": "B-CLL cells", "test": "cells", "format": "cell-based, human", "from_the_text": "Forty-six patients with B-CLL, seven patients with SMZL, two patients with lymphoproliferative disorder without a specific diagnosis, and four healthy donors were studied. All patients were diagnosed according to standard clinical and laboratory criteria. Written informed consent was obtained from all patients. Mononuclear cells from peripheral blood samples were isolated by centrifugation on a Ficoll/Hypaque (Seromed, Berlin, Germany) gradient and cryopreserved in liquid nitrogen in the presence of 10% dimethyl sulfoxide (DMSO).\nLymphocytes were cultured immediately after thawing at a concentration of 2 to 5×10^6 cells/ml in RPMI 1640 culture medium (Biological Industries, Beit Haemek, Israel) supplemented with 10% heat-inactivated fetal calf serum (Gibco-BRL, Paisley, GB), 1% glutamine, and 1% penicillin-streptomycin at 37° C. in a humidified atmosphere containing 5% carbon dioxide.\nApoptosis was measured by annexin V binding. Exposure of phosphatidylserine was quantified by surface annexin V staining as previously described (cf. B. Bellosillo et al., Blood 1998, vol. 92, pp. 1406-1414). To analyze apoptosis in T cells from the samples, 500,000 cells were incubated for 24 h with the indicated factors. Cells were then washed in phosphate-buffered saline (PBS) solution, and incubated in 50 μl of annexin binding buffer with APC-conjugated anti-CD3 and PE-conjugated anti-CD19 for 10 minutes in the dark. Cells were then diluted with annexin binding buffer to a volume of 250 μl and incubated with 0.5 μl of annexin V-FITC for 15 minutes in the dark. 250 μl of annexin binding buffer and 5 μl of PI were added just before flow cytometric analysis. Data were analyzed using Cell Quest software.\nThe effect of several doses of acadesine, ranging from 50 μM to 1 mM, on the viability of B-CLL cells, was studied. […] Cells from 5 patients were incubated for 24 h with various doses of acadesine as indicated.\nCells from 46 patients were incubated for 24 h with (+) or without (−) 0.5 mM acadesine. Viability (V) was measured by analysis of phosphatidylserine exposure and PI uptake, and it is expressed as the percentage of non apoptotic cells. All the patients were sensitive to acadesine and the viability decreased from 67±11% to 26±14% (n=46)."}, "[8]": {"tested_on": "B cells from patients with lymphoproliferative disorder without a specific diagnosis", "test": "Apoptosis/viability by flow cytometry, B cells, lymphoproliferative disorder without a specific diagnosis", "format": "cell-based, human", "details": "0.5 mM and 1.0 mM, 24 h, two patients", "from_the_text": "as §2"}, "[9]": {"tested_on": "B cells from healthy donors", "test": "Apoptosis/viability by flow cytometry, B cells from healthy donors", "format": "cell-based, human", "details": "0.5 mM, 24 h, 4 healthy donors", "from_the_text": "Forty-six patients with B-CLL, seven patients with SMZL, two patients with lymphoproliferative disorder without a specific diagnosis, and four healthy donors were studied. All patients were diagnosed according to standard clinical and laboratory criteria. Written informed consent was obtained from all patients. Mononuclear cells from peripheral blood samples were isolated by centrifugation on a Ficoll/Hypaque (Seromed, Berlin, Germany) gradient and cryopreserved in liquid nitrogen in the presence of 10% dimethyl sulfoxide (DMSO). Lymphocytes were cultured immediately after thawing at a concentration of 2 to 5×10^6 cells/ml in RPMI 1640 culture medium (Biological Industries, Beit Haemek, Israel) supplemented with 10% heat-inactivated fetal calf serum (Gibco-BRL, Paisley, GB), 1% glutamine, and 1% penicillin-streptomycin at 37° C. in a humidified atmosphere containing 5% carbon dioxide. Apoptosis was measured by annexin V binding. Exposure of phosphatidylserine was quantified by surface annexin V staining as previously described (cf. B. Bellosillo et al., Blood 1998, vol. 92, pp. 1406-1414). To analyze apoptosis in T cells from the samples, 500,000 cells were incubated for 24 h with the indicated factors. […] Data were analyzed using Cell Quest software. […] Viability is expressed as the mean value ± standard deviation."}, "[10]": {"tested_on": "Hela (cervix cancer line)", "test": "Effects of acadesine in cell lines: Hela", "format": "cell-based", "from_the_text": "as §1"}, "[11]": {"tested_on": "Jurkat (T cell line)", "test": "Effects of acadesine in cell lines: Jurkat", "format": "cell-based", "from_the_text": "as §1"}, "[12]": {"tested_on": "MCF-7 (breast cancer line)", "test": "Effects of acadesine in cell lines: MCF-7", "format": "cell-based", "from_the_text": "as §1"}}, "data": [{"smiles": "NC(=O)c1ncn([C@@H]2O[C@H](CO)[C@@H](O)[C@H]2O)c1N", "note": "[acadesine, 5-amino-1-β-D-ribofuranosyl-1H-imidazole-4-carboxamide]", "values": [{"measurement": "Sensitivity to acadesine relative to B-CLL cells", "setting": "[1]", "value": "less sensitive to acadesine than B-CLL cells"}, {"measurement": "Sensitivity to acadesine relative to B-CLL cells", "setting": "[2]", "value": "less sensitive to acadesine than B-CLL cells"}, {"measurement": "Viability of B cells", "setting": "[3]", "value": "markedly reduced"}, {"measurement": "Sensitivity to acadesine relative to B-CLL cells", "setting": "[4]", "value": "less sensitive to acadesine than B-CLL cells"}, {"measurement": "Acadesine-induced apoptosis in T cells", "setting": "[5]; doses up to 1 mM, four B-CLL blood samples", "value": "resistant to acadesine-induced apoptosis"}, {"measurement": "Viability of T cells", "setting": "[5]; higher concentrations 2-4 mM", "value": "only slightly affected the viability"}, {"measurement": "Concentrations in plasma", "setting": "[6]", "value": 200, "unit": "µM"}, {"measurement": "Tolerability", "setting": "[6]", "value": "well tolerated"}, {"measurement": "Viability of B cells", "setting": "[7]; 0.5 mM, 24 h, 18 B-CLL patients", "value": "markedly reduced"}, {"measurement": "Induction of apoptosis", "setting": "[7]; 24 h incubation, doses 50 μM to 1 mM, cells from 5 patients", "value": "induced apoptosis in a dose-dependent manner"}, {"measurement": "viability at 500 µM", "setting": "[7]; Homo sapiens, B-CLL, 24 h, read-out: Viability (percentage of non apoptotic cells)", "value": "26 ± 14", "unit": "%"}, {"measurement": "EC50", "setting": "[7]; Homo sapiens, B-CLL, 24 h incubation, 50 μM to 1 mM, cells from 5 patients (n=5), read-out: EC50 (viability of B-CLL cells)", "value": "380 ± 60", "unit": "µM"}, {"measurement": "Viability of B cells", "setting": "[8]", "value": "markedly reduced"}, {"measurement": "Viability of B cells", "setting": "[9]", "value": "markedly reduced"}, {"measurement": "Sensitivity to acadesine relative to B-CLL cells", "setting": "[10]", "value": "less sensitive to acadesine than B-CLL cells"}, {"measurement": "Sensitivity to acadesine relative to B-CLL cells", "setting": "[11]", "value": "less sensitive to acadesine than B-CLL cells"}, {"measurement": "Sensitivity to acadesine relative to B-CLL cells", "setting": "[12]", "value": "less sensitive to acadesine than B-CLL cells"}]}]}
